Experimental data as given in article PMC5112770 (ACS chemical neuroscience, 2015).
Read-outs that look alike come from different tables or passages of the source.

Legend:
tau [1] = molecular target: T1, tau (Homo sapiens, UniProt P10636); assay type: biochemical
tau [2] = molecular target: T1, tau; assay type: biochemical; remark: listed apart in the source

T1 sequence (P10636 1-441 isoform P10636-8): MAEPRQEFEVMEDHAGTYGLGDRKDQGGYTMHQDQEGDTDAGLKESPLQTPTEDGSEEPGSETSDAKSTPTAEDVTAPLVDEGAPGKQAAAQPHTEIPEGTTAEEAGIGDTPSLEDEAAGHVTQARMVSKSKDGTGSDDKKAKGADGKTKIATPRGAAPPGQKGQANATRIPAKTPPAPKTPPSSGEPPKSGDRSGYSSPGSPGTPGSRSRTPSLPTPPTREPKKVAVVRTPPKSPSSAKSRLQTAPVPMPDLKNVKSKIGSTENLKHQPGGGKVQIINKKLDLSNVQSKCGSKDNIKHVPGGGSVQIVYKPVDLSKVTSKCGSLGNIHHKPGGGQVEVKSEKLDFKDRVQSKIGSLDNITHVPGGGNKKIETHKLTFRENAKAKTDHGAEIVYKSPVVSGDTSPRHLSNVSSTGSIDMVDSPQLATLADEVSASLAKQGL

IC50 (tau [1]) [µM] | IC50 (tau [2]) [µM] | SMILES
56 ± 14 |  | CC[C@H](C)/C=C(C)/C=C/C1=CC2=C(Br)C(=O)C(C)(OC(C)=O)C(=O)C2=CO1 (some centres unmarked) [aza-9]
 | 216 ± 18 | CC[C@H](C)/C=C(C)/C=C/C1=CC2=C(Br)C(=O)C(C)(O)C(=O)C2=CO1 (some centres unmarked) [aza-13]
